Experimental findings from US4996314A, “6-(disubstituted amino)carbapenem compounds” (Sanraku Incorporated, priority 1986, dated 1991) are described below.

Experiment in all cases: Antimicrobial activity (MIC), agar diluting method
Common to all, as to assay type: cell-based

Test [1] relates to Staphylococcus aureus (FDA 209 p). The following applies: FDA209, Mueller Hinton agar, 35° C., 18 hours. The protocol: (§1) (1) Antimicrobial activity test
(§2) The antimicrobial activity was measured by the agar diluting method in accordance with the Standardized Method of the Japanese Society of Chemotherapy. A twofold dilution of a test compound was prepared by using M/50 phosphate buffer (pH 7.0). One milliliter of this solution and 9 ml of a Mueller Hinton agar medium (made by Difco Laboratories were mixed in a Petri dish having a diameter of 9 cm to prepare plates. A test microorganism was cultured overnight in a stationary condition at 35° C. in a Mueller-Hinton broth (made by Difco) and diluted with physiological saline to provide a cell density of about 10 ^6 cells/ml. Five microliter of the microorganism suspension was inoculated on the agar plates using a microplanter (made by Sakuma Seisakusho). The plates were incubated at 35° C. for 18 hours. The lowest concentration of the test compound at which the growth of the microorganism was completed inhibited is defined as the minimum inhibitory concentration (MIC) of the test compound against the test organism.

Test [2] deals with Comamonas terrigena (B 996). The settings on record: Mueller Hinton agar, 35° C., 18 hours. As to the method: as §1, §2
Test [3] concerns Micrococcus luteus (ATCC 9341). The following applies: ATCC9341, Mueller Hinton agar, 35° C., 18 hours. The protocol:
as §1, §2

The test system of test [4] is Bacillus subtilis (ATCC 6633). The settings on record: ATCC6633, Mueller Hinton agar, 35° C., 18 hours. As to the method: as §1, §2

The term MIC denotes the lowest concentration that inhibits growth of the organism. Lower therefore signals inhibition by little substance. Consider `CC(=O)NCCSC1=C(C(=O)O)N2C(=O)[C@H](N(C)C(=O)OCc3ccccc3)[C@H]2C1` [[14], sodium (5R,6R)-3-(2-acetamidoethylthio)-6-(N-benzyloxycarbonyl)methylamino-7-oxo-1-azabicyclo[3.2.0]hept-2-ene-2-carboxylate], for which the minimal inhibitory concentration (MIC) was 0.2 mg/L in test [1], 1.56 mg/L in test [2], 1.56 mg/L in test [3] and 1.56 mg/L in test [4].

`COC(=O)N(C)[C@H]1C(=O)N2C(C(=O)O)=C(SCCNC(C)=O)C[C@H]12` [[22], sodium (5R,6R)-6-(N-carbomethoxy-N-methyl)amino-3-acetamidoethylthio-1-azabicyclo[3.2.0]hept-2-ene-7-one-2-carboxylate]: the MIC in test [1] amounted to 0.39 mg/L; in test [2], 0.39 mg/L; in test [3] it was 3.13 mg/L; in test [4], 6.25 mg/L.

For the molecule `CC(=O)NCCSC1=C(C(=O)O)N2C(=O)[C@H](N(C)S(C)(=O)=O)[C@H]2C1` [[29], sodium (5R,6R)-3-(2-acetamidoethylthio)-6-(N-methanesulfonyl)methylamino-7-oxo-1-azabicyclo[3.2.0]hept-2-ene-2-carboxylate], the MIC came out at 0.2 mg/L in test [1], 3.13 mg/L in test [2], 0.78 mg/L in test [3] and 1.56 mg/L in test [4].
